US9409884B2 (Rigel Pharmaceuticals, Inc., priority 2012, dated 2016)
pEC50: −log10 of the molar value.

Target: AMPK
Experiment: AMPK activation, enzyme-linked immunosorbent assay
Assay type: biochemical
In short: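 Read-out: ELISA, used to detect compound-driven activation of AMPK.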

Compound	pEC50 (Table 8, compounds of Table 1)	pEC50 (Table 9, compounds of Table 2)
N#Cc1ccc(CN2CCC(NC(=O)c3cc4cc(O[C@@H]5CCN(Cc6ccc(-n7cccn7)cc6)C[C@H]5F)ccc4o3)CC2)cc1 [Compound 1-164, 5-((3,4-trans)-1-(4-(1H-pyrazol-1-yl)benzyl)-3-fluoropiperidin-4-yloxy)-N-(1-(4-cyanobenzyl)piperidin-4-yl)benzofuran-2-carboxamide]	6.30 to 7.00	
N#Cc1ccc(CN2CCC(NC(=O)c3cc4cc(O[C@@H]5CCN(Cc6ccc(Oc7ccc(F)cc7)cc6)C[C@H]5F)ccc4o3)CC2)cc1 [Compound 1-165, N-(1-(4-cyanobenzyl)piperidin-4-yl)-5-((3,4-trans)-3-fluoro-1-(4-(4-fluorophenoxy)benzyl)piperidin-4-yloxy)benzofuran-2-carboxamide]	> 7.00	
N#Cc1ccc(CN2CCC(NC(=O)c3cc4cc(O[C@@H]5CCN(Cc6cnn(-c7ccc(C#N)cc7)c6)C[C@H]5F)ccc4o3)CC2)cc1 [Compound 1-166, N-(1-(4-cyanobenzyl)piperidin-4-yl)-5-((3,4-trans)-1-((1-(4-cyanophenyl)-1H-pyrazol-4-yl)methyl)-3-fluoropiperidin-4-yloxy)benzofuran-2-carboxamide]	> 7.00	
CS(=O)(=O)c1ccc(CN2CC[C@@H](Oc3ccc4oc(C(=O)NC5CCN(Cc6ccc(C#N)cc6)CC5)cc4c3)[C@H](F)C2)cc1 [Compound 1-167, N-(1-(4-cyanobenzyl)piperidin-4-yl)-5-((3,4-trans)-3-fluoro-1-(4-(methylsulfonyl)benzyl)piperidin-4-yloxy)benzofuran-2-carboxamide]	> 7.00	
N#Cc1ccc(CN2CCC(NC(=O)c3cc4cc(O[C@@H]5CCN(Cc6ccc(OC(F)(F)F)cc6)C[C@H]5F)ccc4o3)CC2)cc1 [Compound 1-168, N-(1-(4-cyanobenzyl)piperidin-4-yl)-5-((3,4-trans)-3-fluoro-1-(4-(trifluoromethoxy)benzyl)piperidin-4-yloxy)benzofuran-2-carboxamide]	> 7.00	
O=C(NC1CCN(Cc2ccc(OC(F)(F)F)cc2)CC1)c1cc2cc(O[C@@H]3CCN(Cc4ccc(-n5cccn5)cc4)C[C@H]3F)ccc2o1 [Compound 1-169, 5-((3,4-trans)-1-(4-(1H-pyrazol-1-yl)benzyl)-3-fluoropiperidin-4-yloxy)-N-(1-(4-(trifluoromethoxy)benzyl)piperidin-4-yl)benzofuran-2-carboxamide]	> 7.00	
O=C(NC1CCN(Cc2ccc(OC(F)(F)F)cc2)CC1)c1cc2cc(O[C@@H]3CCN(Cc4ccc(Oc5ccc(F)cc5)cc4)C[C@H]3F)ccc2o1 [Compound 1-170, 5-((3,4-trans)-3-fluoro-1-(4-(4-fluorophenoxy)benzyl)piperidin-4-yloxy)-N-(1-(4-(trifluoromethoxy)benzyl)piperidin-4-yl)benzofuran-2-carboxamide]	> 7.00	
N#Cc1ccc(-n2cc(CN3CC[C@@H](Oc4ccc5oc(C(=O)NC6CCN(Cc7ccc(OC(F)(F)F)cc7)CC6)cc5c4)[C@H](F)C3)cn2)cc1 [Compound 1-171, 5-((3,4-trans)-1-((1-(4-cyanophenyl)-1H-pyrazol-4-yl)methyl)-3-fluoropiperidin-4-yloxy)-N-(1-(4-(trifluoromethoxy)benzyl)piperidin-4-yl)benzofuran-2-carboxamide]	> 7.00	
CS(=O)(=O)c1ccc(CN2CC[C@@H](Oc3ccc4oc(C(=O)NC5CCN(Cc6ccc(OC(F)(F)F)cc6)CC5)cc4c3)[C@H](F)C2)cc1 [Compound 1-172, 5-((3,4-trans)-3-fluoro-1-(4-(methylsulfonyl)benzyl)piperidin-4-yloxy)-N-(1-(4-(trifluoromethoxy)benzyl)piperidin-4-yl)benzofuran-2-carboxamide]	> 7.00	
O=C(NC1CCN(Cc2ccc(OC(F)(F)F)cc2)CC1)c1cc2cc(O[C@@H]3CCN(Cc4ccc(OC(F)(F)F)cc4)C[C@H]3F)ccc2o1 [Compound 1-173, 5-((3,4-trans)-3-fluoro-1-(4-(trifluoromethoxy)benzyl)piperidin-4-yloxy)-N-(1-(4-(trifluoromethoxy)benzyl)piperidin-4-yl)benzofuran-2-carboxamide]	> 7.00	
N#Cc1ccc(CN2CCC(NC(=O)c3cc4cc(OC5CCN(Cc6ccc(C(F)(F)F)cc6)CC5)ccc4o3)CC2)cc1 [Compound 1-174, N-(1-(4-cyanobenzyl)piperidin-4-yl)-5-(1-(4-(trifluoromethyl)benzyl)piperidin-4-yloxy)benzofuran-2-carboxamide]	> 7.00	
CS(=O)(=O)c1ccc(CN2CCC(Oc3ccc4oc(C(=O)NC5CCN(Cc6ccc(C#N)cc6)CC5)cc4c3)CC2)cc1 [Compound 1-175, N-(1-(4-cyanobenzyl)piperidin-4-yl)-5-(1-(4-(methylsulfonyl)benzyl)piperidin-4-yloxy)benzofuran-2-carboxamide]	> 7.00	
CC(C)(C)OC(=O)N1CCC(NC(=O)c2ccc3[nH]c4c(c3c2)CN(C(=O)OCc2ccccc2)CC4)CC1 [Compound 2-3, benzyl 8-(1-(tert-butoxycarbonyl)piperidin-4-ylcarbamoyl)-3,4-dihydro-1H-pyrido[4,3-b]indole-2(5H)-carboxylate]		4.30 to 5.00

Continued, values first:

pEC50 (Table 8, compounds of Table 1)	pEC50 (Table 9, compounds of Table 2)	Compound
	5.30 to 6.00	N#Cc1ccc(CN2CCC(NC(=O)c3ccc4[nH]c5c(c4c3)CN(C(=O)OCc3ccccc3)CC5)CC2)cc1 [Compound 2-1, benzyl 8-(1-(4-cyanobenzyl)piperidin-4-ylcarbamoyl)-3,4-dihydro-1H-pyrido[4,3-b]indole-2(5H)-carboxylate]
	4.30 to 5.00	O=C(NC1CCN(Cc2ccccc2)CC1)c1ccc2[nH]c3c(c2c1)CN(C(=O)OCc1ccccc1)CC3 [Compound 2-2, benzyl 8-(1-(4-benzyl)piperidin-4-ylcarbamoyl)-3,4-dihydro-1H-pyrido[4,3-b]indole-2(5H)-carboxylate]
	5.30 to 6.00	N#Cc1ccc(CN2CCC(NC(=O)c3ccc4[nH]c5c(c4c3)CN(Cc3ccccc3)CC5)CC2)cc1 [Compound 2-4, 2-benzyl-N-(1-(4-cyanobenzyl)piperidin-4-yl)-2,3,4,5-tetrahydro-1H-pyrido[4,3-b]indole-8-carboxamide]
	5.30 to 6.00	O=C(NC1CCN(Cc2ccc(C(F)(F)F)cc2)CC1)c1ccc2[nH]c3c(c2c1)CN(Cc1ccccc1)CC3 [Compound 2-5, 2-benzyl-N-(1-(4-trifluoromethylbenzyl)piperidin-4-yl)-2,3,4,5-tetrahydro-1N-pyrido[4,3-b]indole-8-carboxamide]
	6.00 to 6.30	CC(C)(C)OC(=O)N1CCC(NC(=O)c2ccc3[nH]c4c(c3c2)CN(Cc2ccc(C(F)(F)F)cc2)CC4)CC1 [Compound 2-6, tert-butyl 4-(2-(4-(trifluoromethyl)benzyl)-2,3,4,5-tetrahydro-1H-pyrido[4,3-b]indole-8-carboxamido)piperidine-1-carboxylate]
	5.00 to 5.30	O=C(NC1CCN(Cc2ccncc2)CC1)c1ccc2[nH]c3c(c2c1)CN(Cc1ccccc1)CC3 [Compound 2-7, 2-benzyl-N-(1-(pyridin-4-ylmethyl)piperidin-4-yl)-2,3,4,5-tetrahydro-1H-pyrido[4,3-b]indole-8-carboxamide]
	5.00 to 5.30	O=C(NC1CCN(Cc2cccnc2)CC1)c1ccc2[nH]c3c(c2c1)CN(Cc1ccc(F)cc1)CC3 [Compound 2-8, 2-(4-fluorobenzyl)-N-(1-(pyridin-3-ylmethyl)piperidin-4-yl)-2,3,4,5-tetrahydro-1H-pyrido[4,3-b]indole-8-carboxamide]
